Measured values published in US20080176932A1, “Pharmaceutical Compositions Containing Baicalein And Baicalin With Synergistic Effect In Tumor Treatment” (priority 2005, published 2008).
Where two headings read alike, the source gives them in different places.

Tests used:
[1] = tested on: Human prostate cancer cell line PC3
[2] = tested on: Human esophagus cancer cell line TE2
L1210 cells = format: in vivo; settings: day 1-10; for ILS(%) increase of life span: L1210 mice
Protocol: L1210 cells on the growth phase were injected at 1×10^5 cells via I.P. into BDF1 female mice (weight approximately 20 g). The next day of implantation, mice were grouped, and received an injection of 0.1 ml/10 g weight of the drug. […] The number of mice of each group was 10. Mice were weighed before and after the treatment. Survival time of each mouse was recorded. The results of changes in increasing of life span of mice were used in assessment of response. The increase of life span was determined as; increase of life span rate=(median survival time of treated animals/median survival time of control animals−1)×100%, the data were analyzed by t-test.

[3] = tested on: Human leukemia cell line HL60; assay: MTT growth inhibition, baicalein and baicalin single or combination; format: cell-based
Source text: Human leukemia cell line HL60—Table 8.

[4] = tested on: Human breast cancer cell line MCF-7
[5] = tested on: Human colon cancer cell line HCT116; assay: MTT growth inhibition, baicalein and baicalin single or combination; format: cell-based
Source text: Human colon cancer cell line HCT116—Table 2;

[6] = tested on: Human gastric cancer cell line MKN28; assay: as above; format: cell-based
Source text: Human gastric cancer cell line MKN28—Table 4;

[7] = tested on: Human hung cancer cell line A549; assay: as above; format: cell-based
Source text: Human hung cancer cell line A549—Table 3;

[8] = tested on: Murine melanoma cell line B 16; assay: Solid tumor transplant model, baicalein and baicalin; format: in vivo; settings: B16 mice, day 1-10; for Final Tumor WT. (g) Mean ± SD / Tumor Growth Inhibition %: day 15
Protocol: C57BL/6 female mice (weight approximately 20 g) were used in this study. Murine melanoma cell line B 16 cells, 2×10^6 tumor cells were implanted s.c. into the armpit of each mice after two passenges in vitro cultured. On the next day after implantation, mice were randomly grouped at 10 per group and received 0.1 ml/10 g weight of the drugs. […] The number of mice of each group was 10. Mice were weighed before and post the treatment. Animals were killed on day 15, and the tumors were removed and weighted.

[9] = tested on: human liver cancer cell line HepG2; assay: MTT growth inhibition, baicalein and baicalin single or combination; format: cell-based
Source text: The results of experiments with human liver cancer cell line HepG2 are illustrated in Table 1;

## O=C(O)[C@H]1O[C@@H](Oc2cc3oc(-c4ccccc4)cc(=O)c3c(O)c2O)[C@H](O)[C@@H](O)[C@@H]1O [BG, baicalin]
[1]; single dose 2.5 μm
  Inhibition of cell growth (%): 1 ± 3%
[1]; single dose 5 μm
  Inhibition of cell growth (%): 17.9 ± 5%
[1]; single dose 10 μm
  Inhibition of cell growth (%): 47 ± 8%
[1]; single dose 20 μm
  Inhibition of cell growth (%): 62 ± 7%
[1]; single dose 40 μm
  Inhibition of cell growth (%): 88 ± 7%
[2]; single dose 2.5 μm
  Inhibition of cell growth (%): 6.2 ± 1.8%
[2]; single dose 10 μm
  Inhibition of cell growth (%): 28.2 ± 2.5%
[2]; single dose 20 μm
  Inhibition of cell growth (%): 49.8 ± 1.78%
[2]; single dose 40 μm
  Inhibition of cell growth (%): 72.7 ± 2.1%
L1210 cells; BG 25 mg/kg i.p.
  Number of mice Surviving through 15 days/total number: 10/10
  ILS(%) increase of life span: 17.3%
L1210 cells; BG 50 mg/kg i.p.
  Number of mice Surviving through 15 days/total number: 10/10
  ILS(%) increase of life span: 27.55%
L1210 cells; BG 100 mg/kg i.p.
  Number of mice Surviving through 15 days/total number: 10/10
  ILS(%) increase of life span: 38.27%
L1210 cells; BG 200 mg/kg i.p.
  Number of mice Surviving through 15 days/total number: 10/10
  ILS(%) increase of life span: 50%
[3]; single dose 2.5 μm
  Inhibition of cell growth (%): 5 ± 2%
[3]; single dose 5 μm
  Inhibition of cell growth (%): 8.6 ± 3%
[3]; single dose 10 μm
  Inhibition of cell growth (%): 21 ± 4%
[3]; single dose 20 μm
  Inhibition of cell growth (%): 45.1 ± 2.9%
[3]; single dose 40 μm
  Inhibition of cell growth (%): 82.7 ± 2.3%
[4]; single dose 2.5 μm
  Inhibition of cell growth (%): 0.5 ± 2.7%
[4]; single dose 5 μm
  Inhibition of cell growth (%): 10.2 ± 1%
[4]; single dose 10 μm
  Inhibition of cell growth (%): 48.02 ± 2%
[4]; single dose 20 μm
  Inhibition of cell growth (%): 60.35 ± 3%
[5]; single dose 2.5 μm
  Inhibition of cell growth (%): 17 ± 2%
[5]; single dose 5 μm
  Inhibition of cell growth (%): 20 ± 3.2%
[5]; single dose 10 μm
  Inhibition of cell growth (%): 27 ± 3%
[5]; single dose 20 μm
  Inhibition of cell growth (%): 33.75 ± 3%
[5]; single dose 40 μm
  Inhibition of cell growth (%): 90 ± 2%
[6]; single dose 2.5 μm
  Inhibition of cell growth (%): 5.2 ± 2%
[6]; single dose 5 μm
  Inhibition of cell growth (%): 12 ± 3%
[6]; single dose 10 μm
  Inhibition of cell growth (%): 30.2 ± 2.9%
[6]; single dose 20 μm
  Inhibition of cell growth (%): 62 ± 3.2%
[6]; single dose 40 μm
  Inhibition of cell growth (%): 85.22 ± 2%
[7]; single dose 2.5 μm
  Inhibition of cell growth (%): 9.8 ± 2%
[7]; single dose 5 μm
  Inhibition of cell growth (%): 17 ± 3%
[7]; single dose 10 μm
  Inhibition of cell growth (%): 30.58 ± 3.2%
[7]; single dose 20 μm
  Inhibition of cell growth (%): 53.58 ± 4%
[7]; single dose 40 μm
  Inhibition of cell growth (%): 92 ± 3%
[8]; BG 25 mg/kg i.p.
  Final Tumor WT. (g) Mean ± SD: 1.81 ± 0.1 g
  Tumor Growth Inhibition %: 16.97%
  Weight Change %: <5%
[8]; BG 50 mg/kg i.p.
  Final Tumor WT. (g) Mean ± SD: 1.77 ± 0.117 g
  Tumor Growth Inhibition %: 18.8%
  Weight Change %: <5%
[8]; BG 100 mg/kg i.p.
  Final Tumor WT. (g) Mean ± SD: 1.51 ± 0.11 g
  Tumor Growth Inhibition %: 30.7%
  Weight Change %: <5%
[8]; BG 200 mg/kg i.p.
  Final Tumor WT. (g) Mean ± SD: 1.28 ± 0.07 g
  Tumor Growth Inhibition %: 41.28%
  Weight Change %: <5%
[9]; single dose 2.5 μm
  Inhibition of cell growth (%): 16.63 ± 2%
[9]; single dose 5 μm
  Inhibition of cell growth (%): 16.8 ± 2%
[9]; single dose 10 μm
  Inhibition of cell growth (%): 34.93 ± 3.8%
[9]; single dose 20 μm
  Inhibition of cell growth (%): 50 ± 2.9%
[9]; single dose 40 μm
  Inhibition of cell growth (%): 86.69 ± 3%
